Results on 17 compounds are retold here after US9115093B2, “Substituted bicyclic dihydropyrimidinones and their use as inhibitors of neutrophil elastase activity” (Boehringer Ingelheim International GmbH, priority 2013, dated 2015).

In this test the target is T1, neutrophil elastase (Homo sapiens, UniProt P08246).
T1 sequence (P08246 30-247 limits assumed): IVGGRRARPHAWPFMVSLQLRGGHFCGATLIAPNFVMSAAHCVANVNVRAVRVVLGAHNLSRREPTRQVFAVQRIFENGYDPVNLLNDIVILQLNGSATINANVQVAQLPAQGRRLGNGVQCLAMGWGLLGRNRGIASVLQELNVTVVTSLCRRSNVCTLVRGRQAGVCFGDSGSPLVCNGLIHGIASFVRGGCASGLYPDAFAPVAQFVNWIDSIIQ
Description: Human Neutrophil Elastase Assay. In kind it is biochemical. Further details: purchased Calbiochem 324681. The settings on record: substrate MeOSuc-Ala-Ala-Pro-Val-AMC, pH 7.5, room temperature. As to the method: Human Neutrophil Elastase Assay
Materials: Human neutrophil elastase was purchased from Calbiochem (Cat.No.: 324681) and the elastase substrate MeOSuc-Ala-Ala-Pro-Val-AMC from Bachem (Cat.No.: I-1270). All other materials were of the highest grade commercially available.
The following buffers were used: Compound buffer: 100 mM Tris, 500 mM NaCl, adjusted to pH 7.5; Assay buffer: 100 mM Tris, 500 mM NaCl, adjusted to pH 7.5, containing 0.01% BSA.
Assay conditions: Test compounds were prediluted in DMSO and subsequently in compound buffer (5% DMSO final). 5 μL of these compound dilutions were mixed with 10 μl Neutrophil elastase (9 ng/ml in assay buffer) in a black 384 well OptiPlate (Perkin Elmer, Cat No.: 6007270) and incubated for 15 min at room temperature. Subsequently 10 μL substrate solution in assay buffer were added (250 nM final concentration) and the plates were incubated for 60 min at room temperature. After inactivation of the enzyme, fluorescence intensities were measured at 380 nm excitation and 460 nm emission wavelengths.
Each plate contains wells with a high value control (DMSO+enzyme+substrate) and wells with a low value control (DMSO+inactivated enzyme+substrate). IC50 values were estimated using a sigmoidal concentration response curve with variable slope. Means of low values were taken as 0%, means of high values as 100%.

As for `CN1C(=O)N(c2cccc(C(F)F)c2)C2=C(C(=O)CCC2)C1c1ccc(C#N)cc1S(C)(=O)=O` (centres unmarked) [Example 49, 4-(1-(3-(Difluoromethyl)phenyl)-3-methyl-2,5-dioxo-1,2,3,4,5,6,7,8-octahydroquinazolin-4-yl)-3-(methylsulfonyl)benzonitrile], the IC50 (as a rule, the point on the concentration scale where inhibition reaches its midpoint) was 0.0013 µM.
`CNC(=O)N1C(=O)N(c2cccc(C(F)(F)F)c2)C2=C(C(=O)CCC2)C1c1ccc(C#N)cc1C` (centres unmarked) [Example 73, 4-(4-Cyano-2-methylphenyl)-N-methyl-2,5-dioxo-1-(3-(trifluoromethyl)phenyl)-1,2,5,6,7,8-hexahydroquinazoline-3(4H)-carboxamide] had an IC50 below 0.001 µM.
The value for `CN(C)CCN(C)C(=O)N1C(=O)N(c2cccc(C(F)(F)F)c2)C2=C(C(=O)CCC2)C1c1ccc(C#N)cc1` (centres unmarked) [Example 39.11] was 0.0232 µM.
The value for `N#Cc1ccc(C2C3=C(CCCC3=O)N(c3cccc(C(F)(F)F)c3)C(=O)N2CC(=O)NCC2CCC(=O)N2)cc1` (centres unmarked) [Example 36.36] was 0.0079 µM; that for `COC(=O)c1cc(S(=O)(=O)N2C(=O)N(c3cccc(C(F)(F)F)c3)C3=C(C(=O)CCC3)C2c2ccc(C#N)cc2)oc1C` (centres unmarked) [Example 44.13] was 0.0273 µM.
`N#Cc1ccc(C2NC(=O)N(c3cc(F)cc(C(F)(F)F)c3)C3=C2C(=O)CCC3)cc1` (centres unmarked) [Example 52.2] yielded an IC50 of 0.0138 µM. This IC50 lies about 2-fold lower than the previous one.
The value for `N#Cc1ccc(C2C3=C(CCCC3=O)N(c3cccc(C(F)(F)F)c3)C(=O)N2CC(=O)N2Cc3cccnc3C2)cc1` (centres unmarked) [Example 36.46] was 0.0012 µM.
The result for `N#Cc1ccc(C2C3=C(CCCC3=O)N(c3cccc(C(F)(F)F)c3)C(=O)N2S(=O)(=O)c2cccnc2)cc1` (centres unmarked) [Example 44.6] reads 0.0223 µM; that for `N#Cc1ccc(C2NC(=O)N(c3ccc(F)c(C(F)(F)F)c3)C3=C2C(=O)CCC3)cc1` (centres unmarked) [Example 52.1], 0.0193 µM.
Turning to `CN1C(=O)CCC1CNC(=O)CN1C(=O)N(c2cccc(C(F)(F)F)c2)C2=C(C(=O)CCC2)C1c1ccc(C#N)cc1` (centres unmarked) [Example 36.57], the midpoint of inhibition, the IC50, lay at 0.0104 µM.
`N#Cc1ccc(C2C3=C(CCCC3=O)N(c3cccc(C(F)(F)F)c3)C(=O)N2S(=O)(=O)c2ccccc2)cc1` (centres unmarked) [Example 44.5] came in with a 50% inhibitory concentration (IC50) of 0.0349 µM.
The compound `N#Cc1ccc(C2C3=C(CCCC3=O)N(c3cccc(C(F)(F)F)c3)C(=O)N2S(=O)(=O)c2csc(C(=O)O)c2)cc1` (centres unmarked) [Example 46, 4-(4-(4-Cyanophenyl)-2,5-dioxo-1-(3-(trifluoromethyl)phenyl)-1,2,5,6,7,8-hexahydroquinazolin-3(4H)-ylsulfonyl)thiophene-2-carboxylic acid] registered an IC50 of 0.0215 µM.
The value for `N#Cc1ccc(C2C3=C(CCCC3=O)N(c3cccc(C(F)(F)F)c3)C(=O)N2CC(=O)N[C@H]2CCNC2=O)cc1` (some centres unmarked) [Example 36.20] was 0.0114 µM; that for `N#Cc1ccc(C2NC(=O)N(c3cccc(C(F)(F)F)c3)C3=C2C(=O)CC(C(F)(F)F)C3)cc1` (centres unmarked) [Example 5, 4-(2,5-Dioxo-7-(trifluoromethyl)-1-(3-(trifluoromethyl)phenyl)-1,2,3,4,5,6,7,8-octahydroquinazolin-4-yl)benzonitrile] was 0.0658 µM.
The value for `CNC(=O)N1C(=O)N(c2cccc(C(F)(F)F)c2)C2=C(C(=O)CCC2)C1c1ccc(C#N)cc1S(C)(=O)=O` (centres unmarked) [Example 47, 4-(4-Cyano-2-(methylsulfonyl)phenyl)-N-methyl-2,5-dioxo-1-(3-(trifluoromethyl)-phenyl)-1,2,5,6,7,8-hexahydroquinazoline-3(4H)-carboxamide] was below 0.001 µM; that for `CC(C)NC(=O)N1C(=O)N(c2cccc(C(F)(F)F)c2)C2=C(C(=O)CCC2)C1c1ccc(C#N)cc1` (centres unmarked) [Example 70.4] was 0.0014 µM; that for `N#Cc1ccc(C2NC(=O)N(c3cccc(C(F)(F)F)c3)C3=C2C(=O)CC2(CCOCC2)C3)cc1` (centres unmarked) [Example 4, 4-(2′,5′-Dioxo-1′-(3-(trifluoromethyl)phenyl)-2,2′,3,3′,4′,5,5′,6,6′,8′-decahydro-1′H-spiro[pyran-4,7′-quinazoline]-4′-yl)benzonitrile] was 0.11 µM.
